In publication PMC11420776 (RSC Advances, 2024):

Experiments:
UO-31 (renal cancer) = experiment: NCI 60-cell one-dose antiproliferative screen; type: cell-based, human; settings: one dose 10 μM
UACC-62 (melanoma) = experiment: NCI 60-cell one-dose antiproliferative screen; type: cell-based, human; settings: one dose 10 μM
MDA-MB-435 (melanoma) = experiment: NCI 60-cell one-dose antiproliferative screen; type: cell-based, human; settings: one dose 10 μM
[1] = tested on: MDA-MB-468 (breast cancer); experiment: NCI 60-cell one-dose antiproliferative screen; type: cell-based, human; settings: one dose 10 μM
MCF7 (breast cancer) = experiment: NCI 60-cell one-dose antiproliferative screen; type: cell-based, human; settings: one dose 10 μM
TK-10 (renal cancer) = experiment: NCI 60-cell one-dose antiproliferative screen; type: cell-based, human; settings: one dose 10 μM
DU-145 (prostate cancer) = experiment: NCI 60-cell one-dose antiproliferative screen; type: cell-based, human; settings: one dose 10 μM
OVCAR-5 (ovarian cancer) = experiment: NCI 60-cell one-dose antiproliferative screen; type: cell-based, human; settings: one dose 10 μM
[2] = tested on: NCI-H460 (NSC lung cancer); experiment: NCI 60-cell one-dose antiproliferative screen; type: cell-based, human; settings: one dose 10 μM
SK-MEL-2 (melanoma) = experiment: NCI 60-cell one-dose antiproliferative screen; type: cell-based, human; settings: one dose 10 μM
HCT-15 (colon cancer) = experiment: NCI 60-cell one-dose antiproliferative screen; type: cell-based, human; settings: one dose 10 μM
[3] = tested on: NCI/ADR-RES (ovarian cancer); experiment: NCI 60-cell one-dose antiproliferative screen; type: cell-based, human; settings: one dose 10 μM
HCC-2998 (colon cancer) = experiment: NCI 60-cell one-dose antiproliferative screen; type: cell-based, human; settings: one dose 10 μM
HCT-116 (colon cancer) = experiment: NCI 60-cell one-dose antiproliferative screen; type: cell-based, human; settings: one dose 10 μM
[4] = tested on: A549/ATCC (NSC lung cancer); experiment: NCI 60-cell one-dose antiproliferative screen; type: cell-based, human; settings: one dose 10 μM
T-47D (breast cancer) = experiment: NCI 60-cell one-dose antiproliferative screen; type: cell-based, human; settings: one dose 10 μM
SK-MEL-28 (melanoma) = experiment: NCI 60-cell one-dose antiproliferative screen; type: cell-based, human; settings: one dose 10 μM
RPMI-8226 (leukemia) = experiment: NCI 60-cell one-dose antiproliferative screen; type: cell-based, human; settings: one dose 10 μM
SW-620 (colon cancer) = experiment: NCI 60-cell one-dose antiproliferative screen; type: cell-based, human; settings: one dose 10 μM
MALME-3M (melanoma) = experiment: NCI 60-cell one-dose antiproliferative screen; type: cell-based, human; settings: one dose 10 μM
[5] = tested on: NCI-H23 (NSC lung cancer); experiment: NCI 60-cell one-dose antiproliferative screen; type: cell-based, human; settings: one dose 10 μM
HOP-92 (NSC lung cancer) = experiment: NCI 60-cell one-dose antiproliferative screen; type: cell-based, human; settings: one dose 10 μM
HT29 (colon cancer) = experiment: NCI 60-cell one-dose antiproliferative screen; type: cell-based, human; settings: one dose 10 μM
U251 (CNS cancer) = experiment: NCI 60-cell one-dose antiproliferative screen; type: cell-based, human; settings: one dose 10 μM
M14 (melanoma) = experiment: NCI 60-cell one-dose antiproliferative screen; type: cell-based, human; settings: one dose 10 μM
[6] = tested on: MDA-MB-231/ATCC (breast cancer); experiment: NCI 60-cell one-dose antiproliferative screen; type: cell-based, human; settings: one dose 10 μM
SNB-75 (CNS cancer) = experiment: NCI 60-cell one-dose antiproliferative screen; type: cell-based, human; settings: one dose 10 μM
CCRF-CEM (leukemia) = experiment: NCI 60-cell one-dose antiproliferative screen; type: cell-based, human; settings: one dose 10 μM
OVCAR-8 (ovarian cancer) = experiment: NCI 60-cell one-dose antiproliferative screen; type: cell-based, human; settings: one dose 10 μM
786-0 (renal cancer) = experiment: NCI 60-cell one-dose antiproliferative screen; type: cell-based, human; settings: one dose 10 μM
SK-OV-3 (ovarian cancer) = experiment: NCI 60-cell one-dose antiproliferative screen; type: cell-based, human; settings: one dose 10 μM
SF-539 (CNS cancer) = experiment: NCI 60-cell one-dose antiproliferative screen; type: cell-based, human; settings: one dose 10 μM
HOP-62 (NSC lung cancer) = experiment: NCI 60-cell one-dose antiproliferative screen; type: cell-based, human; settings: one dose 10 μM
OVCAR-4 (ovarian cancer) = experiment: NCI 60-cell one-dose antiproliferative screen; type: cell-based, human; settings: one dose 10 μM
SF-268 (CNS cancer) = experiment: NCI 60-cell one-dose antiproliferative screen; type: cell-based, human; settings: one dose 10 μM
PC-3 (prostate cancer) = experiment: NCI 60-cell one-dose antiproliferative screen; type: cell-based, human; settings: one dose 10 μM
RXF 393 (renal cancer) = experiment: NCI 60-cell one-dose antiproliferative screen; type: cell-based, human; settings: one dose 10 μM
[7] = tested on: NCI-H322M (NSC lung cancer); experiment: NCI 60-cell one-dose antiproliferative screen; type: cell-based, human; settings: one dose 10 μM
[8] = tested on: NCI-H522 (NSC lung cancer); experiment: NCI 60-cell one-dose antiproliferative screen; type: cell-based, human; settings: one dose 10 μM
[9] = tested on: NCI-H226 (NSC lung cancer); experiment: NCI 60-cell one-dose antiproliferative screen; type: cell-based, human; settings: one dose 10 μM
KM12 (colon cancer) = experiment: NCI 60-cell one-dose antiproliferative screen; type: cell-based, human; settings: one dose 10 μM
SNB-19 (CNS cancer) = experiment: NCI 60-cell one-dose antiproliferative screen; type: cell-based, human; settings: one dose 10 μM
CAKI-1 (renal cancer) = experiment: NCI 60-cell one-dose antiproliferative screen; type: cell-based, human; settings: one dose 10 μM
COLO-205 (colon cancer) = experiment: NCI 60-cell one-dose antiproliferative screen; type: cell-based, human; settings: one dose 10 μM
ACHN (renal cancer) = experiment: NCI 60-cell one-dose antiproliferative screen; type: cell-based, human; settings: one dose 10 μM
SF-295 (CNS cancer) = experiment: NCI 60-cell one-dose antiproliferative screen; type: cell-based, human; settings: one dose 10 μM
HS 578T (breast cancer) = experiment: NCI 60-cell one-dose antiproliferative screen; type: cell-based, human; settings: one dose 10 μM
OVCAR-3 (ovarian cancer) = experiment: NCI 60-cell one-dose antiproliferative screen; type: cell-based, human; settings: one dose 10 μM
LOX IMIV (melanoma) = experiment: NCI 60-cell one-dose antiproliferative screen; type: cell-based, human; settings: one dose 10 μM
A498 (renal cancer) = experiment: NCI 60-cell one-dose antiproliferative screen; type: cell-based, human; settings: one dose 10 μM
EKVX (NSC lung cancer) = experiment: NCI 60-cell one-dose antiproliferative screen; type: cell-based, human; settings: one dose 10 μM
UACC-257 (melanoma) = experiment: NCI 60-cell one-dose antiproliferative screen; type: cell-based, human; settings: one dose 10 μM
SN12C (renal cancer) = experiment: NCI 60-cell one-dose antiproliferative screen; type: cell-based, human; settings: one dose 10 μM
[10] = tested on: 60 human tumor cell lines; experiment: NCI 60-cell one-dose antiproliferative screen, whole panel; type: cell-based; settings: Homo sapiens, 60 cell, read-out: Mean inhibition (mean GI%)
IGROV1 (ovarian cancer) = experiment: NCI 60-cell one-dose antiproliferative screen; type: cell-based, human; settings: one dose 10 μM

O=[N+]([O-])c1ccc(C=NNc2ccc3nnc(-c4ccccc4)n3n2)cc1 [Compound 4b, 6-(2-(4-Nitrobenzylidene)hydrazinyl)-3-phenyl-[1,2,4]triazolo[4,3-b]pyridazine]
GI% (UO-31 (renal cancer)): — (— GI% is below 15%) | GI% (UACC-62 (melanoma)): — (— GI% is below 15%) | GI% (MDA-MB-435 (melanoma)): — (— GI% is below 15%) | GI% [1]: — (— GI% is below 15%) | GI% (MCF7 (breast cancer)): — (— GI% is below 15%) | GI% (TK-10 (renal cancer)): — (— GI% is below 15%) | GI% (DU-145 (prostate cancer)): — (— GI% is below 15%) | GI% (OVCAR-5 (ovarian cancer)): — (— GI% is below 15%) | GI% [2]: — (— GI% is below 15%) | GI% (SK-MEL-2 (melanoma)): — (— GI% is below 15%) | GI% (HCT-15 (colon cancer)): — (— GI% is below 15%) | GI% [3]: — (— GI% is below 15%) | GI% (HCC-2998 (colon cancer)): — (— GI% is below 15%) | GI% (HCT-116 (colon cancer)): — (— GI% is below 15%) | GI% [4]: — (— GI% is below 15%) | GI% (T-47D (breast cancer)): — (— GI% is below 15%) | GI% (SK-MEL-28 (melanoma)): — (— GI% is below 15%) | GI% (RPMI-8226 (leukemia)): — (— GI% is below 15%) | GI% (SW-620 (colon cancer)): — (— GI% is below 15%) | GI% (MALME-3M (melanoma)): — (— GI% is below 15%) | GI% [5]: — (— GI% is below 15%) | GI% (HOP-92 (NSC lung cancer)): — (— GI% is below 15%) | GI% (HT29 (colon cancer)): — (— GI% is below 15%) | GI% (U251 (CNS cancer)): — (— GI% is below 15%) | GI% (M14 (melanoma)): — (— GI% is below 15%) | GI% [6]: — (— GI% is below 15%) | GI% (SNB-75 (CNS cancer)): — (— GI% is below 15%) | GI% (CCRF-CEM (leukemia)): — (— GI% is below 15%) | GI% (OVCAR-8 (ovarian cancer)): — (— GI% is below 15%) | GI% (786-0 (renal cancer)): — (— GI% is below 15%) | GI% (SK-OV-3 (ovarian cancer)): — (— GI% is below 15%) | GI% (SF-539 (CNS cancer)): — (— GI% is below 15%) | GI% (HOP-62 (NSC lung cancer)): — (— GI% is below 15%) | GI% (OVCAR-4 (ovarian cancer)): — (— GI% is below 15%) | GI% (SF-268 (CNS cancer)): — (— GI% is below 15%) | GI% (PC-3 (prostate cancer)): — (— GI% is below 15%) | GI% (RXF 393 (renal cancer)): — (— GI% is below 15%) | GI% [7]: — (— GI% is below 15%) | GI% [8]: — (— GI% is below 15%) | GI% [9]: — (— GI% is below 15%) | GI% (KM12 (colon cancer)): — (— GI% is below 15%) | GI% (SNB-19 (CNS cancer)): — (— GI% is below 15%) | GI% (CAKI-1 (renal cancer)): — (— GI% is below 15%) | GI% (COLO-205 (colon cancer)): — (— GI% is below 15%) | GI% (ACHN (renal cancer)): — (— GI% is below 15%) | GI% (SF-295 (CNS cancer)): — (— GI% is below 15%) | GI% (HS 578T (breast cancer)): — (— GI% is below 15%) | GI% (OVCAR-3 (ovarian cancer)): — (— GI% is below 15%) | GI% (LOX IMIV (melanoma)): — (— GI% is below 15%) | GI% (A498 (renal cancer)): — (— GI% is below 15%) | GI% (EKVX (NSC lung cancer)): — (— GI% is below 15%) | GI% (UACC-257 (melanoma)): — (— GI% is below 15%) | GI% (SN12C (renal cancer)): — (— GI% is below 15%) | inhibition at 10 µM [10]: < 0% | GI% (IGROV1 (ovarian cancer)): — (— GI% is below 15%)
